Source: patent US9908897B2, “Spirocyclic derivatives” (CHRONOS THERAPEUTICS LIMITED, priority 2014, dated 2018)

Columns and labels:
[1] = biological target: human dopamine transporter (DAT) (Homo sapiens (Human), UniProt Q01959); assay: Scintillation Proximity Assay (SPA) competition binding, human DAT; conditions: recombinant hDAT-CHO membranes, [3H]WIN-35,428
Method in brief: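 SPA binding on membranes from CHO cells stably expressing human DAT, with 5 nM [3H]WIN-35,428, WGA-PVT beads and 0.02% BSA in HEPES/NaCl/KCl buffer pH 7.4.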

[2] = biological target: human norepinephrine transporter (NET) (Homo sapiens (Human), UniProt P23975); assay: Scintillation Proximity Assay (SPA) competition binding, human NET; conditions: recombinant hNET-CHO membranes, [3H]nisoxetine
[3] = biological target: human serotonin transporter (SERT) (Homo sapiens (Human), UniProt P31645); assay: Scintillation Proximity Assay (SPA) competition binding, human SERT; conditions: recombinant hSERT-CHO membranes, [3H]citalopram
[4] = biological target: human ERG potassium channel (hERG) (Homo sapiens (Human), UniProt Q12809); assay: hERG tail current recording, Rapid ICE automated patch-clamp; format: cell-based; conditions: HEK293 cells stably transfected with hERG
Description: Measure of the Effect on hERG Channel by Tail Current Recording Using In Vitro Rapid ICE™
The potency of the compounds of the invention in inhibiting human ERG potassium channel (hERG) tail current is assessed in a recombinant HEK293 cell line stably transfected with hERG cDNA using Rapid ICE™ (Rapid Ion Channel Electrophysiology) assay. Rapid ICE™ is an automated patch-clamp assay utilizing the PatchXpress 7000A system (Molecular Devices Corporation) or the QPatch HTX system (Sophion Bioscience A/S).
Briefly cells are cultivated for 24 to 72 hours before recordings in minimum essential medium supplemented with 10% FBS, 1% non-essential amino acids, 1% sodium pyruvate, 2 mM L-glutamine. The day of the experiment cells are detached with TrypLE and prepared to be loaded on the instrument. For PatchXpress cells are finally resuspended in 150 μl of Extracellular Buffer whereas for QPatch cells are resuspended in 7 ml Serum-Free Media containing 25 mM Hepes and Soybean trypsin inhibitor and immediately placed in the cell storage tank of the machine. The composition of the Extracellular Buffer is (mM): NaCl 137; KCl 4; CaCl2 1.8; MgCl2 1.0; D-glucose 10; N 2 hydroxyethylpiperazine-N′-2-ethanesulfonic acid (HEPES) 10; pH 7.4 with 1 M NaOH. The composition of the pipette solution is (mM): KCl 130; MgCl2 1.0; Ethylene glycol-bis(β-aminoethyl ether)-N,N,N′,N′-tetraacetic acid (EGTA) 5; MgATP 5; HEPES 10; pH 7.2 with 1 M KOH. The voltage protocol includes the following steps: step from −80 mV to −50 mV for 200 ms, +20 mV for 4.8 s, step to −50 mV for 5 s then step to the holding potential of −80 mV. Compounds of the invention are dissolved in DMSO and diluted in Extracellular Buffer to achieve final test concentrations (0.1, 1 and 10 μM) in 0.1% DMSO. The voltage protocol is run and recorded continuously during the experiment. The vehicle, corresponding to 0.1% DMSO in Extracellular Buffer, is then applied for 3 min followed by the test substance in triplicate. The standard combined exposure time is 5 min. The average of tail current amplitude values recorded from 4 sequential voltage pulses is used to calculate for each cell the effect of the test substance by calculating the residual current (% control) compared with vehicle pre-treatment. Data are reported as % inhibition for each concentration tested and IC50 values are estimated using DataXpress or QPatch software. At least two cells are tested, more if results diverge.

human dopamine transporter (DAT), sequence (Q01959 whole entry): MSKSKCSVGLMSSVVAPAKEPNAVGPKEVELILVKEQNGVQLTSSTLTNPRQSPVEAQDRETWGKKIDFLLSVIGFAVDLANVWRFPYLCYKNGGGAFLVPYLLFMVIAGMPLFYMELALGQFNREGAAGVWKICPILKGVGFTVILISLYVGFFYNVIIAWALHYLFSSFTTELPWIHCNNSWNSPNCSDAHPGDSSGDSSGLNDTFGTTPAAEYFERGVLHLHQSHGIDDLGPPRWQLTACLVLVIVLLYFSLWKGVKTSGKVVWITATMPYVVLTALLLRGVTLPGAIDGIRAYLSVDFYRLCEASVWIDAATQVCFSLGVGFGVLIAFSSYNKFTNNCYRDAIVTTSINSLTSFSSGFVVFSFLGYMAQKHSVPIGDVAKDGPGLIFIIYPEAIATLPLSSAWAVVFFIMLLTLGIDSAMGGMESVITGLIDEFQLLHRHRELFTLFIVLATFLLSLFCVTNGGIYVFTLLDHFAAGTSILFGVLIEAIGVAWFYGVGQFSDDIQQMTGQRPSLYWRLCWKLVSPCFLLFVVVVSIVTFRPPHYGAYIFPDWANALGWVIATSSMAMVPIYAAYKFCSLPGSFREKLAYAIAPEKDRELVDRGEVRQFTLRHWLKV
human serotonin transporter (SERT), sequence (P31645 whole entry): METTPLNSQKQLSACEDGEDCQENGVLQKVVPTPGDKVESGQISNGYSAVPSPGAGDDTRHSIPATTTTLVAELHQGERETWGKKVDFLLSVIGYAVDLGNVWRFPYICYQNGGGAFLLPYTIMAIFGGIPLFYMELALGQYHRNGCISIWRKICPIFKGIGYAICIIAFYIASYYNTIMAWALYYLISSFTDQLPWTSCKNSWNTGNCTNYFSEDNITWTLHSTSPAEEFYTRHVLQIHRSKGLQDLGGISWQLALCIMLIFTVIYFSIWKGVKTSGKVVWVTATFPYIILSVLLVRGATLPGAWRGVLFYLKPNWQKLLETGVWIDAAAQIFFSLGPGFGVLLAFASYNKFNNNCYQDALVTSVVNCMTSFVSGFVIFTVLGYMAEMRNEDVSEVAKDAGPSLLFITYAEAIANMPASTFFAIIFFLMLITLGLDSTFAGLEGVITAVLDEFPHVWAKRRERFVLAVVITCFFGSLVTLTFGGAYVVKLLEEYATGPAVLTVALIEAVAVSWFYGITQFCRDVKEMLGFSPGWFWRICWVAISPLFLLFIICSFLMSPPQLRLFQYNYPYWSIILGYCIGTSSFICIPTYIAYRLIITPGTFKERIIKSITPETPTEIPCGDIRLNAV
human ERG potassium channel (hERG), sequence (Q12809 whole entry): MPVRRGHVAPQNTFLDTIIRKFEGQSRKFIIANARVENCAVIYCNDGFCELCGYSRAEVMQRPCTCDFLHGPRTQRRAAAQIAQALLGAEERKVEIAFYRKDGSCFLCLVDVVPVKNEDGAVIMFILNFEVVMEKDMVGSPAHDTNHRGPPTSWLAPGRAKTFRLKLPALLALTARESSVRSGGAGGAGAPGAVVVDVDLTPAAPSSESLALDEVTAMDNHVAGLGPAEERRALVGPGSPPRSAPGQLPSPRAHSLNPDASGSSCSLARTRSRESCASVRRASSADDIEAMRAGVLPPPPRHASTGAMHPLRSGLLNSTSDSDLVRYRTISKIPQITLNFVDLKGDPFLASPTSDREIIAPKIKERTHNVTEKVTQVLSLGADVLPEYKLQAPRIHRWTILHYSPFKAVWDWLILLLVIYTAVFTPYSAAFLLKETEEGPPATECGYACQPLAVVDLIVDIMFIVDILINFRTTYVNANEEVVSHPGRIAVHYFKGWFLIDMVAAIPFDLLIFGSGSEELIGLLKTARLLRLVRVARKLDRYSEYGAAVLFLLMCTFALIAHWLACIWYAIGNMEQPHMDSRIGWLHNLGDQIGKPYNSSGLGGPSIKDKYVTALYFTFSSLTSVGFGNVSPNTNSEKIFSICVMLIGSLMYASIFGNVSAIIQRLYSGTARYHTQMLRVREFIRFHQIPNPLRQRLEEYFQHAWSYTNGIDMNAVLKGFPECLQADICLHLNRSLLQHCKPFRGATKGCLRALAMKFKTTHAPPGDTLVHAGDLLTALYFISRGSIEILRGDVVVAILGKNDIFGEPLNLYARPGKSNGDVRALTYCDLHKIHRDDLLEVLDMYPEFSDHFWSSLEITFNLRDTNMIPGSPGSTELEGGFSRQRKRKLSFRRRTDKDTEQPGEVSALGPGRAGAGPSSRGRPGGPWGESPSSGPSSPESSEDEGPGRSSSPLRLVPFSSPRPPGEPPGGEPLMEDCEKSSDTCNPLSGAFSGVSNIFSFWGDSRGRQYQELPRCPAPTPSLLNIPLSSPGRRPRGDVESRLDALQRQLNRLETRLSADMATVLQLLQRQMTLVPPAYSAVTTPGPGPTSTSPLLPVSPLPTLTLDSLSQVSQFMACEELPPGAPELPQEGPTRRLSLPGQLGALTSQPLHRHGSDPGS
human norepinephrine transporter (NET), sequence (P23975 whole entry): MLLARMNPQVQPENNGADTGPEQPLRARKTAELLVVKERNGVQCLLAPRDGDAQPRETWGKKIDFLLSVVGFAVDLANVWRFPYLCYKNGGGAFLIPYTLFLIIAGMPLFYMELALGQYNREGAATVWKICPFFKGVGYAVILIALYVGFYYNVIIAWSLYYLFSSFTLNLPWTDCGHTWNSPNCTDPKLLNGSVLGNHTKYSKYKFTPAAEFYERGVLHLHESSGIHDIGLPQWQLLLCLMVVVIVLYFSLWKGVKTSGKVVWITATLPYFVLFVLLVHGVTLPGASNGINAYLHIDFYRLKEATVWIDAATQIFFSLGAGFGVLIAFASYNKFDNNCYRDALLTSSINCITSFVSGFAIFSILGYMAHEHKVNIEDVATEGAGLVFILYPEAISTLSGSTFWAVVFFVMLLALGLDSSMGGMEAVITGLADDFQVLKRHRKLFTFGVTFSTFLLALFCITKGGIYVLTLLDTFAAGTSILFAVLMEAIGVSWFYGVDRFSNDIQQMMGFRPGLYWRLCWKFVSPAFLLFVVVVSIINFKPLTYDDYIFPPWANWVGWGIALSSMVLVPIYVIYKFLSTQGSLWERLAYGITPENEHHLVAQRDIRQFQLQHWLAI

SMILES | pIC50 DAT [1] | pIC50 NET [2] | pIC50 SERT [3] | pIC50 hERG [4]
Fc1cccc(Oc2cc(C(F)(F)F)nc(N3CCC4(CNCCC45OCCO5)C3)n2)c1 (stereo not shown) [Example 87, 8-[4-(3-fluorophenoxy)-6-(trifluoromethyl)pyrimidin-2-yl]-1,4-dioxa-8,12-diazadispiro[4.0.4^6.4^5]tetradecane] | 8.67 | 6.82 | 5.43 | 6.0
O=C1NCC2(CCN(c3nc(Oc4cccc(F)c4)cc(C(F)(F)F)n3)CC2)O1 [Example 89, 8-[4-(3-fluorophenoxy)-6-(trifluoromethyl)pyrimidin-2-yl]-1-oxa-3,8-diazaspiro[4.5]decan-2-one] | 7.73 | 5.66 | 4.89 | 5.7
Fc1cccc(Oc2cc(F)c(F)cc2N2CCC3(CCNCC3)C2)c1 [Example 90, 2-[4,5-difluoro-2-(3-fluorophenoxy)phenyl]-2,8-diazaspiro[4.5]decane] | 8.36 | 6.85 | 6.31 | 6.1
Fc1cccc(Oc2cc(F)c(F)cc2N2CCC3(CCNC3)CC2)c1 [Example 91, 8-[4,5-difluoro-2-(3-fluorophenoxy)phenyl]-2,8-diazaspiro[4.5]decane] | 8.01 | 6.26 | 7.29 | 5.9
Fc1cccc(Oc2cc(F)cc(N3CCC4(CCNC4)CC3)c2)c1 [Example 92, 8-[3-fluoro-5-(3-fluorophenoxy)phenyl]-2,8-diazaspiro[4.5]decane] | 8.84 | 7.33 | 7.37 | 6.2
Fc1cccc(Oc2cc(F)c(F)cc2N2CCC3(CCNCC34OCCO4)C2)c1 (stereo not shown) [Example 93, 8-[4,5-difluoro-2-(3-fluorophenoxy)phenyl]-1,4-dioxa-8,13-diazadispiro[4.0.4^6.4^5]tetradecane] | 8.44 | 6.64 | 6.90 | 6.0
Cl.Fc1cccc(Oc2cc(C(F)(F)F)nc(N3CCC4(CCNCC45OCCO5)C3)n2)c1 (stereo not shown) [Example 95, 8-[4-(3-fluorophenoxy)-6-(trifluoromethyl)pyrimidin-2-yl]-1,4-dioxa-8,13-diazadispiro[4.0.4^6.4^5]tetradecane hydrochloride] | 8.16 | 6.09 | 6.29 | 5.6
